Experimental data as given in ChEMBL document CHEMBL1133001, “Protection against oxidative damage by iron chelators: effect of lipophilic analogues and prodrugs of N,N'-bis(3,4,5-trimethoxybenzyl)ethylenediamine- N,N'-diacetic acid (OR10141)” (J Med Chem, 2000).

Assay: Compound was tested for inhibition of hydrogen peroxide toxicity against human skin fibroblasts
Format: functional

SMILES	IC50 [µM]
COc1cc(CN(CCN(CC(=O)OCOC(C)=O)Cc2cc(OC)c(OC)c(OC)c2)CC(=O)OCOC(C)=O)cc(OC)c1OC	3
CCCCCCCOc1c(OC)cc(CN(CCN(CC(=O)O)Cc2cc(OC)c(OCCCCCCC)c(OC)c2)CC(=O)O)cc1OC	50
